Columns and labels:
Assay type in all cases: in vivo
[1] = tested on: goosegrass (Eleusine indica); assay: Test B pre-/postemergence plant response; details: for Goosegrass plant response rating: 8 g ai/ha
Summary of the method: (§1)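 Visual scoring from 0 (no effect) to 100 (complete control) against untreated controls was done 13 to 15 days after greenhouse treatment. Chemicals were formulated in a surfactant-containing non-phytotoxic solvent and applied to soil preemergence or to 1- to 4-leaf (2-18 cm) plants postemergence.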

[2] = tested on: lambsquarters (Chenopodium album); assay: Test B pre-/postemergence plant response; details: for Lambsquarters plant response rating: 8 g ai/ha
Summary of the method: as §1

[3] = tested on: large crabgrass (Digitaria sanguinalis); assay: Test B pre-/postemergence plant response; details: for Crabgrass, Large plant response rating: 8 g ai/ha
Summary of the method: as §1

[4] = tested on: bermudagrass (Cynodon dactylon); assay: Test B pre-/postemergence plant response; details: for Bermudagrass plant response rating: 8 g ai/ha
Summary of the method: as §1

[5] = tested on: cocklebur (Xanthium strumarium); assay: Test B pre-/postemergence plant response; details: for Cocklebur plant response rating: 8 g ai/ha
Summary of the method: as §1

[6] = tested on: common (oilseed) sunflower (Helianthus annuus); assay: Test B pre-/postemergence plant response; details: Preemergence
Summary of the method: as §1

soybean (Glycine max) = assay: Test B pre-/postemergence plant response; details: for Soybean plant response rating: 8 g ai/ha
Summary of the method: as §1

[7] = tested on: surinam grass (Brachiaria decumbens); assay: Test B pre-/postemergence plant response; details: for Surinam Grass plant response rating: 8 g ai/ha
Summary of the method: as §1

corn (Zea mays) = assay: Test B pre-/postemergence plant response; details: for Corn plant response rating: 8 g ai/ha
Summary of the method: as §1

kochia (Kochia scoparia) = assay: Test B pre-/postemergence plant response; details: for Kochia plant response rating: 8 g ai/ha
Summary of the method: as §1

[8] = tested on: common ragweed (Ambrosia elation); assay: Test B pre-/postemergence plant response; details: for Ragweed plant response rating: 8 g ai/ha
Summary of the method: as §1

[9] = tested on: wheat (Triticum aestivum); assay: Test B pre-/postemergence plant response; details: for Wheat plant response rating: 8 g ai/ha
Summary of the method: as §1

[10] = tested on: Russian thistle (Salsola iberica); assay: Test B pre-/postemergence plant response; details: Preemergence
Summary of the method: as §1

[11] = tested on: ducksalad (Heteranthera limosa); assay: Test B flooded paddy test plant response
Summary of the method: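 Compounds were added directly to paddy water over 2-leaf-stage plants in pots flooded 3 cm above soil, water depth maintained. Visual injury scored against controls after 13 to 15 days in greenhouse, 0 (none) to 100 (complete control); dash indicates no result.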

[12] = Postemergence, 16 g ai/ha, scale 0 to 100
[13] = Postemergence, 31 g ai/ha, scale 0 to 100, 0 no effect, 100 complete control
[14] = Postemergence, 62 g ai/ha, scale 0 to 100, 0 no effect, 100 complete control
[15] = Preemergence, 16 g ai/ha, scale 0 to 100 (0 no effect, 100 complete control)
[16] = Preemergence, 31 g ai/ha, 0 to 100 scale, 0 no effect, 100 complete control
[17] = Preemergence, 62 g ai/ha, scale 0 to 100
[18] = 16 g ai/ha, scale 0 to 100 (0 no effect, 100 complete control)
[19] = 31 g ai/ha, scale 0 to 100 (0 no effect, 100 complete control)
[20] = Preemergence, 31 g ai/ha, scale 0 to 100 (0 no effect, 100 complete control)
[21] = Preemergence, 62 g ai/ha, 0 to 100 scale, 0 no effect, 100 complete control

CCCc1cc(-c2ccc(Cl)cc2)nn1-c1c(O)cnn(C)c1=O [Compound 43]
Goosegrass plant response rating ([1]; postemergence, 0-100 scale): 60 | Plant response rating, Goosegrass [1, 12]: 70 | Plant response rating, Goosegrass [1, 13]: 75 | Plant response rating, Goosegrass [1, 14]: 85 | Plant response rating, Goosegrass [1, 15]: 75 | Plant response rating, Goosegrass [1, 16]: 98 | Plant response rating, Goosegrass [1, 17]: 100 | Goosegrass plant response rating ([1]; Preemergence, scale 0 to 100): 65 | Lambsquarters plant response rating ([2]; postemergence, 0-100 scale): 0 | Plant response rating, Lambsquarters [2, 12]: 0 | Plant response rating, Lambsquarters [2, 13]: 0 | Plant response rating, Lambsquarters [2, 14]: 0 | Plant response rating, Lambsquarters [2, 15]: 0 | Plant response rating, Lambsquarters [2, 16]: 0 | Plant response rating, Lambsquarters [2, 17]: 0 | Lambsquarters plant response rating ([2]; Preemergence, scale 0 to 100): 0 | Crabgrass, Large plant response rating ([3]; postemergence, 0-100 scale): 65 | Plant response rating, Crabgrass, Large [3, 12]: 70 | Plant response rating, Crabgrass, Large [3, 13]: 75 | Plant response rating, Crabgrass, Large [3, 14]: 85 | Plant response rating, Crabgrass, Large [3, 15]: 65 | Plant response rating, Crabgrass, Large [3, 16]: 98 | Plant response rating, Crabgrass, Large [3, 17]: 100 | Crabgrass, Large plant response rating ([3]; Preemergence, scale 0 to 100): 15 | Bermudagrass plant response rating ([4]; postemergence, 0-100 scale): 20 | Plant response rating, Bermudagrass [4, 12]: 45 | Plant response rating, Bermudagrass [4, 13]: 65 | Bermudagrass plant response rating ([4]; Preemergence, scale 0 to 100 (0 no effect, 100 complete control)): 0 | Plant response rating, Bermudagrass [4, 15]: 0 | Plant response rating, Bermudagrass [4, 16]: 65 | Plant response rating, Bermudagrass [4, 17]: 95 | Cocklebur plant response rating ([5]; postemergence, 0-100 scale): 0 | Plant response rating, Cocklebur [5, 12]: 0 | Plant response rating, Cocklebur [5, 13]: 0 | Plant response rating, Cocklebur [5, 14]: 0 | Plant response rating, Cocklebur [5, 15]: 0 | Plant response rating, Cocklebur [5, 16]: 0 | Plant response rating, Cocklebur [5, 17]: 0 | Cocklebur plant response rating ([5]; Preemergence, scale 0 to 100): 0 | Plant response rating, Sunflower [6, 18]: 0 | Plant response rating, Sunflower [6, 19]: 0 | Plant response rating, Sunflower ([6]; 62 g ai/ha, scale 0 to 100): 0 | Sunflower plant response rating ([6]; 8 g ai/ha, scale 0 to 100): 0 | Soybean plant response rating (soybean (Glycine max); postemergence, 0-100 scale): 0 | Plant response rating, Soybean (soybean (Glycine max); [12]): 0 | Plant response rating, Soybean (soybean (Glycine max); [14]): 0 | Plant response rating, Soybean (soybean (Glycine max); [15]): 0 | Plant response rating, Soybean (soybean (Glycine max); [20]): 0 | Plant response rating, Soybean (soybean (Glycine max); [17]): 0 | Soybean plant response rating (soybean (Glycine max); Preemergence, scale 0 to 100): 0 | Surinam Grass plant response rating ([7]; postemergence, 0-100 scale): 65 | Plant response rating, Surinam Grass [7, 12]: 95 | Plant response rating, Surinam Grass [7, 14]: 100 | Plant response rating, Surinam Grass [7, 15]: 90 | Plant response rating, Surinam Grass [7, 20]: 100 | Plant response rating, Surinam Grass [7, 21]: 100 | Surinam Grass plant response rating ([7]; Preemergence, scale 0 to 100): 0 | Corn plant response rating (corn (Zea mays); postemergence, 0-100 scale): 80 | Plant response rating, Corn (corn (Zea mays); [12]): 85 | Plant response rating, Corn (corn (Zea mays); [13]): 85 | Plant response rating, Corn (corn (Zea mays); [14]): 100 | Plant response rating, Corn (corn (Zea mays); [15]): 70 | Plant response rating, Corn (corn (Zea mays); [16]): 85 | Plant response rating, Corn (corn (Zea mays); [17]): 100 | Corn plant response rating (corn (Zea mays); Preemergence, scale 0 to 100): 0 | Kochia plant response rating (kochia (Kochia scoparia); postemergence, 0-100 scale): 0 | Plant response rating, Kochia (kochia (Kochia scoparia); [12]): 0 | Plant response rating, Kochia (kochia (Kochia scoparia); [13]): 0 | Plant response rating, Kochia (kochia (Kochia scoparia); [14]): 0 | Plant response rating, Kochia (kochia (Kochia scoparia); [15]): 0 | Plant response rating, Kochia (kochia (Kochia scoparia); [16]): 0 | Plant response rating, Kochia (kochia (Kochia scoparia); [17]): 0 | Kochia plant response rating (kochia (Kochia scoparia); Preemergence, scale 0 to 100): 0 | Ragweed plant response rating ([8]; postemergence, 0-100 scale): 0 | Plant response rating, Ragweed [8, 12]: 0 | Plant response rating, Ragweed [8, 13]: 0 | Plant response rating, Ragweed [8, 14]: 0 | Plant response rating, Ragweed [8, 15]: 0 | Plant response rating, Ragweed [8, 20]: 0 | Plant response rating, Ragweed [8, 17]: 0 | Ragweed plant response rating ([8]; Preemergence, scale 0 to 100): 0 | Wheat plant response rating ([9]; postemergence, 0-100 scale): 30 | Plant response rating, Wheat [9, 12]: 70 | Plant response rating, Wheat [9, 14]: 100 | Plant response rating, Wheat [9, 15]: 10 | Plant response rating, Wheat [9, 20]: 15 | Plant response rating, Wheat [9, 21]: 80 | Wheat plant response rating ([9]; Preemergence, scale 0 to 100): 0 | Plant response rating, Russian Thistle [10, 18]: 0 | Plant response rating, Russian Thistle [10, 19]: 0 | Plant response rating, Russian Thistle ([10]; 62 g ai/ha, scale 0 to 100): 0 | Russian Thistle plant response rating ([10]; 8 g ai/ha, scale 0 to 100): 0 | Plant response rating, Ducksalad ([11]; Flood (flooded paddy test), 62 g ai/ha, scale 0 to 100, 0 no effect, 100 complete control): 0 | Plant response rating, Ducksalad ([11]; Flood (flooded paddy test), 125 g ai/ha, scale 0 to 100, 0 no effect, 100 complete control): 0 | Plant response rating, Ducksalad ([11]; Flood (flooded paddy test), 250 g ai/ha, scale 0 to 100, 0 no effect, 100 complete control): 30 | Plant response rating, Ducksalad ([11]; Flood, 31 g ai/ha, scale 0 to 100): 0
